The target in one experiment is T1, KRAS G12C 1-169, his-tagged protein, GDP-loaded (Homo sapiens, UniProt P01116, G12C).
T1 construct: KRAS G12C 1-169, his-tagged protein, GDP-loaded
T1 sequence (P01116 1-169 isoform P01116-2 G12C): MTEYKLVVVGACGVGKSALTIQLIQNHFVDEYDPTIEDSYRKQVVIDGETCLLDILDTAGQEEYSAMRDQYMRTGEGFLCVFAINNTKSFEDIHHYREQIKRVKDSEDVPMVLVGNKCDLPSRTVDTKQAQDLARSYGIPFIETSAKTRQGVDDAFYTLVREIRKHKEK
Put plainly: Biochemical assay: covalent binding to KRAS G12C analyzed by mass spectrometry. As to conditions: compounds 1-47, measured at 24 h. On the procedure: Compounds were tested for activity as follows:
Compounds were diluted to 50× final test concentration in DMSO in 96-well storage plates. […] Reactions were mixed carefully and thoroughly by pipetting up/down with a 200 μl multi-channel pipettor. […] 5 μl of 2% formic acid (Fisher cat#A117) in DI H2O was then added to each well followed by mixing with a pipette. The plate was then resealed with aluminum seal and stored on dry ice until analyzed as described below.
The above described assays were analyzed by mass spectrometry according to the following procedure:
The MS instrument is set to positive polarity, 2 GHz resolution, and low mass (1700) mode and allowed to equilibrate for 30 minutes. The instrument is then calibrated, switched to acquisition mode and the appropriate method loaded.
After another 30 minute equilibration time, a blank batch (i.e., buffer) is run to ensure equipment is operating properly. The samples are thawed at 37° C. for 10 minutes, briefly centrifuged, and transfer to the bench top. Wells A1 and H12 are spiked with 1 μL 500 μM internal standard peptide, and the plates centrifuged at 2000×g for 5 minutes. The method is then run and masses of each individual well recorded.
The masses (for which integration data is desired) for each well are pasted into the platemap and exported from the analysis. Masses for the internal standards are exported as well. The data at 50 ppm is extracted for the +19 charge state, and identity of well A1 is assigned using the internal standard spike and integrated. Peak data is exported as a TOF list and the above steps are repeated individually, for the +20, 21, 22, 23, 24, and 25 charge states.
As for `C=CC(=O)N1CCN(c2ncnc3cc(Cl)c(-c4ccccc4Cl)cc23)CC1` [Compound I-1, 1-(4-(7-chloro-6-(2-chlorophenyl)quinazolin-4-yl)piperazin-1-yl)prop-2-en-1-one], the Binding % entry is “+++ (+++indicates binding activity greater than 50% and up to 75%)”.

Turning to `C=CC(=O)N1CCC(Nc2ncnc3cc(Cl)c(-c4ccccc4Cl)cc23)CC1` [Compound I-2, 1-(4-(7-chloro-6-(2-chlorophenyl)quinazolin-4-ylamino)piperidin-1-yl)prop-2-en-1-one], the Binding % result is given as “+ (+indicates binding activity from 5% to 25%)”.

For `C=CC(=O)N1CCN(c2n[nH]c3cc(Cl)c(-c4ccccc4Cl)cc23)CC1` [Compound I-3, 1-(4-(6-chloro-5-(2-chlorophenyl)-1H-indazol-3-yl)piperazin-1-yl)prop-2-en-1-one], the Binding % result is given as “+ (+indicates binding activity from 5% to 25%)”.

Take `C=CC(=O)N1CCN(c2ncnc3cc(Cl)c(-c4ccc(Cl)cc4)cc23)CC1` [Compound I-4, 1-(4-(7-chloro-6-(4-chlorophenyl)quinazolin-4-yl)piperazin-1-yl)prop-2-en-1-one]: the Binding % result was “++++ (++++indicates binding activity greater than 75%)”.

For the compound `C=CC(=O)N1CCN(c2ncnc3cc(Cl)c(-c4cccc(Cl)c4)cc23)CC1` [Compound I-5, 1-(4-(7-chloro-6-(3-chlorophenyl)quinazolin-4-yl)piperazin-1-yl)prop-2-en-1-one], the Binding % entry is “+++ (+++indicates binding activity greater than 50% and up to 75%)”.

`C=CC(=O)N1CCN(c2ncnc3cc(Cl)c(-c4ccc(Cl)cc4Cl)cc23)CC1` [Compound I-6, 1-(4-(7-chloro-6-(2,4-dichlorophenyl)quinazolin-4-yl)piperazin-1-yl)prop-2-en-1-one]: the Binding % result is “+++ (+++indicates binding activity greater than 50% and up to 75%)”.

On to `C=CC(=O)N1CCN(c2ncnc3cc(Cl)c(-c4ccc(Cl)c(Cl)c4)cc23)CC1` [Compound I-7, 1-(4-(7-chloro-6-(3,4-dichlorophenyl)quinazolin-4-yl)piperazin-1-yl)prop-2-en-1-one], for which the Binding % result is given as “++++ (++++indicates binding activity greater than 75%)”.

For `C=CC(=O)N1CCN(c2ncnc3cc(Cl)c(-c4ccccc4C#N)cc23)CC1` [Compound I-8, 2-(4-(4-acryloylpiperazin-1-yl)-7-chloroquinoazlin-6-yl)benzonitrile], the Binding % entry is “++ (++indicates binding activity greater than 25% and up to 50%)”.

With `C=CC(=O)N1CCN(c2ncnc3cc(Cl)c(-c4cc(Cl)ccc4Cl)cc23)CC1` [Compound I-9, 1-(4-(7-chloro-6-(2,5-dichlorophenyl)quinazolin-4-yl)piperazain-1-yl)prop-2-en-1-one], the Binding % result was “+++ (+++indicates binding activity greater than 50% and up to 75%)”.

Regarding `C=CC(=O)N1CCN(c2ncnc3cc(Cl)c(-c4cc(Cl)ccc4O)cc23)CC1` [Compound I-10, 1-(4-(7-chloro-6-(5-chloro-2-hydroxyphenyl)quinazolin-4-yl)piperazin-1-yl)prop-2-en-1-one], the Binding % entry was “++ (++indicates binding activity greater than 25% and up to 50%)”.

Take `C=CC(=O)N1CCN(c2ncnc3cc(Cl)c(-c4ccc(Cl)cc4O)cc23)CC1` [Compound I-11, 1-(4-(7-chloro-6-(4-chloro-2-hydroxyphenyl)quinoazlin-4-yl)piperazin-1-yl)prop-2-en-1-one]: the Binding % result was “++++ (++++indicates binding activity greater than 75%)”.

Staying with this experiment, now noted: compounds 247-342, measured at 30 min.
As to `C=CC(=O)N1CCN(c2nc(OCCN3CCOCC3)nc3c(F)c(-c4c(C)ccc5[nH]ncc45)c(Cl)cc23)CC1` [Compound 342, 1-(4-(6-chloro-8-fluoro-7-(5-methyl-1H-indazol-4-yl)-2-(2-morpholinoethoxy)quinazolin-4-yl)piperazin-1-yl)prop-2-en-1-one], the Binding % result is recorded as “++++ (++++indicates binding activity greater than 75%)”.

The values are drawn from patent publication US10111874B2, “Combination therapies for treatment of cancer” (Araxes Pharma LLC, priority 2014, dated 2018).
